Measured values taken from PubChem BioAssay AID248 (DTP/NCI, 2004).
“And” between values parts separate entries of the source, which are not always exact repeats. Equal entries are not always repeated. Toxic doses and inconclusive results are not listed. Rule as the data show it: active = T/C of 150% or more; inactive = T/C below 125%.

Test system: L1210 leukemia ip in BDF1 mice, survival T/C
Test: NCI In Vivo Anticancer Drug Screen. Data for tumor model L1210 Leukemia (intraperitoneal) in B6D2F1 (BDF1) mice
Conditions: endpoint: mean survival time, higher = longer survival
Outline: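 Survival endpoint. Drug-treated group vs vehicle group, expressed as T divided by C. Tumor passaged by transplantation.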

[1] = dose: 50.0 mg/kg/injection, schedule: Q01DX009 (ip), vehicle: saline
[2] = dose: 100.0 mg/kg/injection, schedule: Q01DX009 (ip), vehicle: saline
[3] = dose: 100.0 mg/kg/injection, schedule: Q01DX001 (ip), vehicle: saline
[4] = dose: 200.0 mg/kg/injection, schedule: Q01DX001 (ip), vehicle: saline
[5] = dose: 400.0 mg/kg/injection, schedule: Q01DX001 (ip), vehicle: saline
[6] = dose: 100.0 mg/kg/injection, schedule: Q01DX001 (ip), vehicle: carboxymethylcellulose (CMC)
[7] = dose: 200.0 mg/kg/injection, schedule: Q01DX001 (ip), vehicle: carboxymethylcellulose (CMC)
[8] = dose: 400.0 mg/kg/injection, schedule: Q01DX001 (ip), vehicle: carboxymethylcellulose (CMC)
[9] = dose: 50.0 mg/kg/injection, schedule: Q01DX001 (ip), vehicle: saline

Measured: T/C

O=C(NCS(=O)(=O)O)OCc1ccccc1
inactive: dose: 100.0 mg/kg/injection, schedule: Q01DX001 (ip), vehicle: other 98 % of control | dose: 100.0 mg/kg/injection, schedule: Q04DX003 (ip), vehicle: other 96 % of control | dose: 200.0 mg/kg/injection, schedule: Q01DX001 (ip), vehicle: other 104 % of control | dose: 200.0 mg/kg/injection, schedule: Q04DX003 (ip), vehicle: other 102 % of control | dose: 400.0 mg/kg/injection, schedule: Q01DX001 (ip), vehicle: other 96 % of control | dose: 400.0 mg/kg/injection, schedule: Q04DX003 (ip), vehicle: other 96 % of control

Cc1cccc(C)c1NC(=O)C[N+](C)(C)N
inactive: dose: 100.0 mg/kg/injection, schedule: Q04DX002 (ip), vehicle: saline 94 % of control | dose: 200.0 mg/kg/injection, schedule: Q04DX002 (ip), vehicle: saline 94 % of control

NNC(=O)CNc1ccc(F)cc1
inactive: dose: 100.0 mg/kg/injection, schedule: Q04DX002 (ip), vehicle: Klucel (hydroxypropylcellulose) (HPC) 105 % of control | dose: 200.0 mg/kg/injection, schedule: Q04DX002 (ip), vehicle: Klucel (hydroxypropylcellulose) (HPC) 114 % of control

Cn1c(O)c(N)c(=O)n(C)c1=O
inactive: [1] 98 % of control | [2] 92 % of control

Cc1cc2oc(=O)c3c(c2c(O)c1CN1CCCC1)CCCC3
inactive: [3] 92 % of control | [4] 89 % of control | [5] 98 % of control

O=C(O)c1ccccc1/C=N/N1C(=O)CSC1=S
inactive: dose: 2.5 mg/kg/injection, schedule: Q01DX001 (ip), vehicle: carboxymethylcellulose (CMC) 97 % of control | dose: 5.0 mg/kg/injection, schedule: Q01DX001 (ip), vehicle: carboxymethylcellulose (CMC) 97 % of control | dose: 10.0 mg/kg/injection, schedule: Q01DX001 (ip), vehicle: carboxymethylcellulose (CMC) 109 % of control

CCCCCCC(=O)N(C(C)C)C(C)C
inactive: [6] 100 % of control | dose: 100.0 mg/kg/injection, schedule: Q01DX009 (ip), vehicle: carboxymethylcellulose (CMC) 103 % of control and 104 % of control | dose: 100.0 mg/kg/injection, schedule: Q04DX002 (ip), vehicle: carboxymethylcellulose (CMC) 98 % of control and 103 % of control | dose: 100.0 mg/kg/injection, schedule: Q04DX003 (ip), vehicle: carboxymethylcellulose (CMC) 104 % of control | [7] 98 % of control | dose: 200.0 mg/kg/injection, schedule: Q01DX009 (ip), vehicle: carboxymethylcellulose (CMC) 97 % of control and 100 % of control | dose: 200.0 mg/kg/injection, schedule: Q04DX002 (ip), vehicle: carboxymethylcellulose (CMC) 93 % of control and 98 % of control | dose: 200.0 mg/kg/injection, schedule: Q04DX003 (ip), vehicle: carboxymethylcellulose (CMC) 102 % of control | [8] 88 % of control | dose: 400.0 mg/kg/injection, schedule: Q01DX009 (ip), vehicle: carboxymethylcellulose (CMC) 93 % of control | dose: 400.0 mg/kg/injection, schedule: Q04DX002 (ip), vehicle: carboxymethylcellulose (CMC) 92 % of control

CCCCCCC(CO)CO
inactive: [3] 89 % of control | [4] 91 % of control | [5] 94 % of control

CCCCn1c(=O)cc[nH]c1=O
inactive: dose: 100.0 mg/kg/injection, schedule: Q04DX003 (ip), vehicle: Klucel (hydroxypropylcellulose) (HPC) 99 % of control | dose: 200.0 mg/kg/injection, schedule: Q04DX003 (ip), vehicle: Klucel (hydroxypropylcellulose) (HPC) 91 % of control | dose: 400.0 mg/kg/injection, schedule: Q04DX003 (ip), vehicle: Klucel (hydroxypropylcellulose) (HPC) 93 % of control

NNP(=O)(Oc1ccccc1)Oc1ccccc1
inactive: [1] 108 % of control | dose: 75.0 mg/kg/injection, schedule: Q01DX001 (ip), vehicle: acetone 110 % of control | [2] 124 % of control | dose: 150.0 mg/kg/injection, schedule: Q01DX001 (ip), vehicle: acetone 103 % of control | dose: 300.0 mg/kg/injection, schedule: Q01DX001 (ip), vehicle: acetone 97 % of control

CCC(C)C(CN)(CCCN1CCOCC1)c1cccc2ccccc12 (configuration not stated)
inactive: dose: 100.0 mg/kg/injection, schedule: Q04DX003 (ip), vehicle: saline with Tween-80 93 % of control | dose: 200.0 mg/kg/injection, schedule: Q04DX003 (ip), vehicle: saline with Tween-80 95 % of control | dose: 400.0 mg/kg/injection, schedule: Q04DX003 (ip), vehicle: saline with Tween-80 95 % of control

CC(Cl)(CCl)C(=O)O (configuration not stated)
inactive: [9] 95 % of control | [3] 103 % of control

CCOP(=O)(Nc1ccc2c(c1)Cc1c-2cc(Cl)c(NC(C)=O)c1Cl)OCC
inactive: dose: 50.0 mg/kg/injection, schedule: Q01DX001 (ip), vehicle: carboxymethylcellulose (CMC) 97 % of control | [6] 92 % of control | [7] 94 % of control | [8] 92 % of control

O=[N+]([O-])c1ccccc1C1ON1C1CCCCC1 (configuration not stated)
inactive: [3] 97 % of control | [4] 97 % of control | [5] 90 % of control

O=[N+]([O-])/C(=C/c1ccccc1)c1ccccc1
inactive: [9] 102 % of control | [3] 108 % of control | [4] 104 % of control

CCOC(=O)c1ccc(CCCCl)cc1
inactive: dose: 100.0 mg/kg/injection, schedule: Q01DX001 (ip), vehicle: Klucel (hydroxypropylcellulose) (HPC) 98 % of control | dose: 200.0 mg/kg/injection, schedule: Q01DX001 (ip), vehicle: Klucel (hydroxypropylcellulose) (HPC) 88 % of control | dose: 400.0 mg/kg/injection, schedule: Q01DX001 (ip), vehicle: Klucel (hydroxypropylcellulose) (HPC) 91 % of control

Clc1nc(Cl)c(Cl)c(C(Cl)(Cl)Cl)n1
inactive: dose: 25.0 mg/kg/injection, schedule: Q01DX009 (ip), vehicle: saline with Tween-80 101 % of control | dose: 50.0 mg/kg/injection, schedule: Q01DX009 (ip), vehicle: saline with Tween-80 92 % of control | dose: 100.0 mg/kg/injection, schedule: Q01DX009 (ip), vehicle: saline with Tween-80 87 % of control | dose: 200.0 mg/kg/injection, schedule: Q01DX009 (ip), vehicle: saline with Tween-80 86 % of control
